Experimental data published in patent US20240325747A1, “COMPOSITIONS AND METHODS OF A CONCOMITANT THERAPY OF ALTERNATING ELECTRIC FIELDS AND N-CADHERIN INHIBITOR” (NOVOCURE GMBH, priority 2023, published 2024).

Tests used:
A2780 cells [1] = experiment: Calcium switch assay, immunoblot of AKT phosphorylation (Ser473) after TTFields; assay type: cell-based; conditions: A2780, TTFields 200 kHz 72 h then 4 mM EGTA; compared with TTFields-treated cells under normal calcium levels
Protocol: (§1) FIGS. 10A-10E show N-cadherin engagement functions upstream of AKT activation during long-term TTFields application. (FIG. 10A) H1299 cells were either left untreated or treated with TTFields (150 kHz) for 72 h. Left panel: Confocal fluorescence microscopy images of N-cadherin in control and TTFields-treated cells are shown. Blue, DAPI-stained DNA; Red, F-actin; Green, N-cadherin; Scale bars, 20 μm. Right panel: Quantification of N-cadherin expression, shown as mean±SEM. *p<0.05; unpaired t-test: N≥2. (FIGS. 10B, 10C) A2780 and H1299 cells were treated with TTFields (200 kHz and 150 kHz, respectively) for 72 h and then: left untreated (No EGTA), treated with 4 mM EGTA (EGTA), or treated with 4 mM EGTA subsequently replaced with serum-free calcium-containing medium (EGTA/Ca^+2). (FIG. 10B) Representative phase-contrast images. Scale bars, 100 μm. (FIG. 10C) Upper panels: Samples were immunoblotted for AKT, pAKT (Ser473), and GAPDH. […]
(§2) NSCLC cells (FIGS. 4—H1299 cells) or ovarian cancer cells (FIGS. 5—A2780 cells) treated with TTFields for 72 hours were incubated with […] EGTA to disrupt cell-cell contacts. […] Relative protein densities of Akt on the Ser-473 ratio were determined. […]

H1299 cells [2] = experiment: as above; assay type: cell-based; conditions: H1299, TTFields 150 kHz 72 h then 4 mM EGTA; compared with TTFields-treated cells under normal calcium levels
Protocol: as §1, §2

A2780 cells [3] = experiment: Calcium switch assay, cell morphology (phase-contrast); assay type: cell-based; conditions: A2780, control and TTFields (72 h) conditions, 4 mM EGTA
Protocol: as §1, with “GAPDH. Lower panels: Densitometric analysis (arbitrary units normalized to the expression of the housekeeping protein GAPDH), is shown as mean±SEM. *p<0.05, and *** p<0.001; one-way ANOVA followed by Tukey's post hoc test: N≥2.” for “GAPDH.”

H1299 cells [4] = experiment: as above; assay type: cell-based; conditions: H1299, control and TTFields (72 h) conditions, 4 mM EGTA
Protocol: as §1, with “GAPDH. Lower panels: Densitometric analysis (arbitrary units normalized to the expression of the housekeeping protein GAPDH), is shown as mean±SEM. *p<0.05, and *** p<0.001; one-way ANOVA followed by Tukey's post hoc test: N≥2.” for “GAPDH.”

angiogenesis = conditions: cited from earlier work
tumor microenvironment = conditions: systemic ADH-1; cited from earlier work

Compound	AKT phosphorylation (Ser473) (A2780 cells [1])	AKT phosphorylation (Ser473) (H1299 cells [2])	Cell morphology (A2780 cells [3])	Cell morphology (H1299 cells [4])	Angiogenesis (angiogenesis)	Tumor growth (tumor microenvironment)
O=C(O)CN(CCOCCOCCN(CC(=O)O)CC(=O)O)CC(=O)O [EGTA, ethylene glycol-bis (β-aminoethyl ether)-N,N,N′,N′-tetraacetic acid]	reduced phosphorylation of AKT	reduced phosphorylation of AKT	rounded morphology	rounded morphology		
N-Ac-CHAVC-NH2 (also: cyclic, type not given here) [ADH-1, cyclic peptide N-cadherin antagonist (CHAVC]					inhibit angiogenesis	modulate tumor growth through activation of the AKT pathway
